According to paper PMC7284125, “Identification of annotated bioactive molecules that impair motility of the blood fluke Schistosoma mansoni” (International Journal for Parasitology: Drugs and Drug …, 2020):

What follows are compounds tested on S. mansoni schistosomulae (assay: Motility assay on schistosomulae (pixel displacement, relative to DMSO control)). Conditions: Schistosoma mansoni, 120 h; Selleckchem customized library secondary screen, 24h, D5, 1 µM; read-out: Fractional motility.
Format: cell-based, Schistosoma mansoni
Protocol: Puerto Rican strain Biomphalaria glabrata snails infected with S. mansoni were kindly provided by Dr. Fred Lewis (Biomedical Research Institute and BEI Resources, MD, USA). Schistosomulae were obtained by exposing six to eight weeks-old snails to continuous light for 2 h at 32 °C. The resulting suspension of cercaria was then mechanically transformed as described ([Lewis, 2001]) and cultured in Opti-MEM/antibiotics (Thermo Fisher Scientific, Waltham, MA) containing 100 μg/mL streptomycin and 100 units/ml penicillin supplemented with 5% fetal bovine serum (FBS; Thermo Fisher). Parasite cultures were incubated at 37 °C with 5% CO2 for at least 10 days with no apparent loss of viability. At this point, animals with internal dark granulations and with no observable body contraction/relaxation cycles were considered dead.
(§1) Schistosomulae (200/well) and adult parasites (unpaired worms) were maintained in 300 μL OPTI-MEM with 5% dialyzed FBS (without antibiotics) and exposed to compounds at 1 and 10 μM for 24 h. A kinetic assay consisting of 1, 3, 6 and 12 h incubation times was performed on selected hits by motility monitoring using a stereo microscope (SMZ1270, Nikon) for adults and an inverted microscope for schistosomulae (eclipse TE2000-U, Nikon) connected to a monochrome camera (DS-Qi2, Nikon) for image acquisition. Images were recorded at a rate of 10 frames/s for a period of 1 min and videos were analyzed using ImageJ software (version 1.41, NIH, USA). Parasite movement quantification and data analysis protocols were applied using the pixel displacement method ([Patocka et al., 2014]; [Rashid et al., 2015]) and compared to control parasites treated with DMSO. Parasites were then washed several times in Opti-MEM, 5% FBS and incubated up to an additional three days (schistosomulae) or five days (adult worms) at 37 °C, 5% CO2 and motility was recorded as described above.

Compound `CN1CCC(CNc2ccc3ncc(-c4cccc(OC(F)(F)F)c4)n3n2)CC1` [SGI-1776] has an activity at 1 µM of 35%.

Same assay, conditions: Schistosoma mansoni, 120 h; schistosomulae, secondary screen, 24h exposure, read at D5, 1 µM; read-out: Fractional motility

In order of rising activity at 1 µM:
1. CN(C)CCC=C1c2ccccc2CCc2ccccc21 [Amitriptyline]  -4%
2. CC(C)(C)c1cc(NC(=O)Nc2ccc(-c3cn4c(n3)sc3cc(OCCN5CCOCC5)ccc34)cc2)no1 [Quizartinib]  -2.37%
3. CC(C(O)c1ccc(O)cc1)N1CCC(Cc2ccccc2)CC1 (centres unmarked) [Ifenprodil]  11%
4. CCCCCCCCOc1ccccc1C(=O)Nc1ccc(C(=O)OCC[N+](C)(CC)CC)cc1 [Otilonium]  31%
5. COc1cc(N2CCN(C)CC2)ccc1Nc1nccc(-c2cn(C)c3cnccc23)n1 [AZ191]  49%
6. COCCCC/C(=N\OCCN)c1ccc(C(F)(F)F)cc1 [Fluvoxamine]  99%

Same assay, conditions: Schistosoma mansoni; schistosomulae, secondary screen, 24h exposure, read at D1, 1 µM; read-out: Fractional motility

In order of rising activity at 1 µM:
1. CCCCCCCCOc1ccccc1C(=O)Nc1ccc(C(=O)OCC[N+](C)(CC)CC)cc1 [Otilonium]  -72%
2. COc1cc(N2CCN(C)CC2)ccc1Nc1nccc(-c2cn(C)c3cnccc23)n1 [AZ191]  -38%
3. CC(C(O)c1ccc(O)cc1)N1CCC(Cc2ccccc2)CC1 (centres unmarked) [Ifenprodil]  81%
4. CN(C)CCC=C1c2ccccc2CCc2ccccc21 [Amitriptyline]  286%
5. COCCCC/C(=N\OCCN)c1ccc(C(F)(F)F)cc1 [Fluvoxamine]  812%

Same assay, conditions: Selleckchem customized library secondary screen, 24h, D1, 10 µM

In the case of `CN1CCC(CNc2ccc3ncc(-c4cccc(OC(F)(F)F)c4)n3n2)CC1` [SGI-1776], the Fractional motility is reported as 121.95.

Same assay, conditions: Selleckchem customized library secondary screen, 24h, D5, 10 µM

For `CN1CCC(CNc2ccc3ncc(-c4cccc(OC(F)(F)F)c4)n3n2)CC1` [SGI-1776], the Fractional motility was 114.81.

Same assay, conditions: schistosomulae, secondary screen, 24h exposure, read at D1, 10 µM

In order of rising Fractional motility:
1. COc1cc(N2CCN(C)CC2)ccc1Nc1nccc(-c2cn(C)c3cnccc23)n1 [AZ191]  -0.69
2. CC(C(O)c1ccc(O)cc1)N1CCC(Cc2ccccc2)CC1 (centres unmarked) [Ifenprodil]  0.47
3. CCCCCCCCOc1ccccc1C(=O)Nc1ccc(C(=O)OCC[N+](C)(CC)CC)cc1 [Otilonium]  0.56
4. CN(C)CCC=C1c2ccccc2CCc2ccccc21 [Amitriptyline]  5.01
5. COCCCC/C(=N\OCCN)c1ccc(C(F)(F)F)cc1 [Fluvoxamine]  10.49

Same assay, conditions: schistosomulae, secondary screen, 24h exposure, read at D5, 10 µM

In order of falling Fractional motility:
1. COCCCC/C(=N\OCCN)c1ccc(C(F)(F)F)cc1 [Fluvoxamine]  3.18
2. CN(C)CCC=C1c2ccccc2CCc2ccccc21 [Amitriptyline]  0.60
3. COc1cc(N2CCN(C)CC2)ccc1Nc1nccc(-c2cn(C)c3cnccc23)n1 [AZ191]  -0.09
4. CC(C(O)c1ccc(O)cc1)N1CCC(Cc2ccccc2)CC1 (centres unmarked) [Ifenprodil]  -0.10
5. CCCCCCCCOc1ccccc1C(=O)Nc1ccc(C(=O)OCC[N+](C)(CC)CC)cc1 [Otilonium]  -0.13
6. CC(C)(C)c1cc(NC(=O)Nc2ccc(-c3cn4c(n3)sc3cc(OCCN5CCOCC5)ccc34)cc2)no1 [Quizartinib]  -0.36

Same assay, conditions: schistosomulae, throughout the course of the experiment

With `CN1CCC(CNc2ccc3ncc(-c4cccc(OC(F)(F)F)c4)n3n2)CC1` [SGI-1776] the “stimulated motility relative to control” value was > 100 fold.

The compounds below were run on S. mansoni schistosomulae (assay: Phenotypic primary screen assay on schistosomulae (phenotype; viability by methylene blue dye exclusion)). Conditions: three-day-old schistosomulae, 10 μM, 24 h; estimated 5 days post compound exposure.
Format: cell-based, Schistosoma mansoni
Protocol: Puerto Rican strain Biomphalaria glabrata snails infected with S. mansoni were kindly provided by Dr. Fred Lewis (Biomedical Research Institute and BEI Resources, MD, USA). Schistosomulae were obtained by exposing six to eight weeks-old snails to continuous light for 2 h at 32 °C. […] At this point, animals with internal dark granulations and with no observable body contraction/relaxation cycles were considered dead.
Schistosomulae were monitored under a stereo microscope (SMZ1270, Nikon). Phenotypic observations were made by analyzing schistosomulae, 24 h after drug addition to assess any immediate effect and five days post-compound exposure to observe long-term impacts on both the movement and overall body shape in comparison to control animals exposed to DMSO only.

In the case of `CCCCCCCCOc1ccccc1C(=O)Nc1ccc(C(=O)OCC[N+](C)(CC)CC)cc1` [Otilonium], the Phenotype is reported as “blebbing”.
With `CN1CCC(CNc2ccc3ncc(-c4cccc(OC(F)(F)F)c4)n3n2)CC1` [SGI-1776] the Phenotype was “dark”.
In the case of `COCCCC/C(=N\OCCN)c1ccc(C(F)(F)F)cc1` [Fluvoxamine], the Phenotype is reported as “elongated”.
With `CC(C(O)c1ccc(O)cc1)N1CCC(Cc2ccccc2)CC1` (centres unmarked) [Ifenprodil] the Phenotype was “abnormal morphology, granulated”.
For `CN(C)CCC=C1c2ccccc2CCc2ccccc21` [Amitriptyline], the Phenotype was “elongated, granulated, blebbing”.
In the case of `CC(C)(C)c1cc(NC(=O)Nc2ccc(-c3cn4c(n3)sc3cc(OCCN5CCOCC5)ccc34)cc2)no1` [Quizartinib], the Phenotype is reported as “granulated”.
In the case of `COc1cc(N2CCN(C)CC2)ccc1Nc1nccc(-c2cn(C)c3cnccc23)n1` [AZ191], the Phenotype is reported as “granulated, blebbing”.

Each compound was assayed on S. mansoni adult worms (assay: Motility assay on adult parasites (pixel displacement, relative to DMSO control)). Conditions: secondary screen, 10 μM, D1, Female adult worms.
Format: cell-based, Schistosoma mansoni
Protocol: Adult parasites were collected from 40 day-old female CD1 mice (Charles River) previously inoculated by the tail infection method ([Lewis, 2001]). Six weeks post-infection, mice were sacrificed, and adult worms extracted after perfusion of in the hepatic portal vein and mesenteric venules ([Lewis, 2001]). Animal procedures were reviewed and approved by the Facility Animal Care Committee of McGill University (Protocol No. 3346) and were conducted in accordance with the guidelines of the Canadian Council on Animal Care.
as §1

In order of rising Fractional motility:
1. COc1cc(N2CCN(C)CC2)ccc1Nc1nccc(-c2cn(C)c3cnccc23)n1 [AZ191]  -0.48
2. CCCCCCCCOc1ccccc1C(=O)Nc1ccc(C(=O)OCC[N+](C)(CC)CC)cc1 [Otilonium]  0.10
3. CN(C)CCC=C1c2ccccc2CCc2ccccc21 [Amitriptyline]  0.24
4. CC(C)(C)c1cc(NC(=O)Nc2ccc(-c3cn4c(n3)sc3cc(OCCN5CCOCC5)ccc34)cc2)no1 [Quizartinib]  0.64
5. CC(C(O)c1ccc(O)cc1)N1CCC(Cc2ccccc2)CC1 (centres unmarked) [Ifenprodil]  1.05
6. COCCCC/C(=N\OCCN)c1ccc(C(F)(F)F)cc1 [Fluvoxamine]  1.69
7. CN1CCC(CNc2ccc3ncc(-c4cccc(OC(F)(F)F)c4)n3n2)CC1 [SGI-1776]  3.98

Same assay, conditions: secondary screen, 10 μM, D1, Male adult worms

In order of falling Fractional motility:
1. CN1CCC(CNc2ccc3ncc(-c4cccc(OC(F)(F)F)c4)n3n2)CC1 [SGI-1776]  9.87
2. CC(C)(C)c1cc(NC(=O)Nc2ccc(-c3cn4c(n3)sc3cc(OCCN5CCOCC5)ccc34)cc2)no1 [Quizartinib]  4.64
3. COCCCC/C(=N\OCCN)c1ccc(C(F)(F)F)cc1 [Fluvoxamine]  4.13
4. CC(C(O)c1ccc(O)cc1)N1CCC(Cc2ccccc2)CC1 (centres unmarked) [Ifenprodil]  1.73
5. CN(C)CCC=C1c2ccccc2CCc2ccccc21 [Amitriptyline]  1.53
6. COc1cc(N2CCN(C)CC2)ccc1Nc1nccc(-c2cn(C)c3cnccc23)n1 [AZ191]  0.25
7. CCCCCCCCOc1ccccc1C(=O)Nc1ccc(C(=O)OCC[N+](C)(CC)CC)cc1 [Otilonium]  0.16

Same assay, conditions: secondary screen, 10 μM, D5, Female adult worms

In order of falling Fractional motility:
1. CN1CCC(CNc2ccc3ncc(-c4cccc(OC(F)(F)F)c4)n3n2)CC1 [SGI-1776]  0.50
2. CN(C)CCC=C1c2ccccc2CCc2ccccc21 [Amitriptyline]  0.30
3. COCCCC/C(=N\OCCN)c1ccc(C(F)(F)F)cc1 [Fluvoxamine]  0.13
4. COc1cc(N2CCN(C)CC2)ccc1Nc1nccc(-c2cn(C)c3cnccc23)n1 [AZ191]  -0.27
5. CC(C(O)c1ccc(O)cc1)N1CCC(Cc2ccccc2)CC1 (centres unmarked) [Ifenprodil]  -0.36
6. CC(C)(C)c1cc(NC(=O)Nc2ccc(-c3cn4c(n3)sc3cc(OCCN5CCOCC5)ccc34)cc2)no1 [Quizartinib]  -0.59
7. CCCCCCCCOc1ccccc1C(=O)Nc1ccc(C(=O)OCC[N+](C)(CC)CC)cc1 [Otilonium]  -0.67

Same assay, conditions: secondary screen, 10 μM, D5, Male adult worms

In order of falling Fractional motility:
1. COc1cc(N2CCN(C)CC2)ccc1Nc1nccc(-c2cn(C)c3cnccc23)n1 [AZ191]  2.64
2. CN1CCC(CNc2ccc3ncc(-c4cccc(OC(F)(F)F)c4)n3n2)CC1 [SGI-1776]  0.36
3. COCCCC/C(=N\OCCN)c1ccc(C(F)(F)F)cc1 [Fluvoxamine]  0.22
4. CN(C)CCC=C1c2ccccc2CCc2ccccc21 [Amitriptyline]  0.03
5. CC(C)(C)c1cc(NC(=O)Nc2ccc(-c3cn4c(n3)sc3cc(OCCN5CCOCC5)ccc34)cc2)no1 [Quizartinib]  -0.09
6. CC(C(O)c1ccc(O)cc1)N1CCC(Cc2ccccc2)CC1 (centres unmarked) [Ifenprodil]  -0.44
7. CCCCCCCCOc1ccccc1C(=O)Nc1ccc(C(=O)OCC[N+](C)(CC)CC)cc1 [Otilonium]  -0.65

What follows are compounds tested on S. mansoni schistosomulae (assay: Phenotypic primary screen assay on schistosomulae (phenotype; viability by methylene blue dye exclusion)). Conditions: Schistosoma mansoni; three-day-old schistosomulae, 10 μM, 24 h; calculated 5 days post compound exposure; read-out: Viability (%).
Format: cell-based

In order of rising viability at 10 µM:
1. CC(C)(C)c1cc(NC(=O)Nc2ccc(-c3cn4c(n3)sc3cc(OCCN5CCOCC5)ccc34)cc2)no1 [Quizartinib]  54%
2. COc1cc(N2CCN(C)CC2)ccc1Nc1nccc(-c2cn(C)c3cnccc23)n1 [AZ191]  89.5%
3. CN(C)CCC=C1c2ccccc2CCc2ccccc21 [Amitriptyline]  90%
4. CN1CCC(CNc2ccc3ncc(-c4cccc(OC(F)(F)F)c4)n3n2)CC1 [SGI-1776]  92.5%
5. COCCCC/C(=N\OCCN)c1ccc(C(F)(F)F)cc1 [Fluvoxamine]  97%
6. CCCCCCCCOc1ccccc1C(=O)Nc1ccc(C(=O)OCC[N+](C)(CC)CC)cc1 [Otilonium]  98.5%
7. CC(C(O)c1ccc(O)cc1)N1CCC(Cc2ccccc2)CC1 (centres unmarked) [Ifenprodil]  98.5%
